Experimental findings from US7264932B2, “Nuclease inhibitor cocktail” (Applera Corporation, priority 1999, dated 2007) are described below.

pKi: −log10 of the molar value.

Experiment [1] addresses DNase I (Bos taurus, UniProt P00639). The experiment is described as follows: Lambda DNA digestion assay with DNase I. Format: biochemical. Particulars: 0.02 U DNase I, 1 ug lambda DNA, 10 min at 37C. An excerpt:
One application for small molecule RNase inhibitors is as an RNA control agent during enzymatic manipulation of solutions containing RNA. These reactions include in vitro transcription, in vitro translation, DNase digestion, and reverse transcription, among others. […] […] […] All reactions were quenched with EDTA and the cleavage products resolved on a 1% agarose gel.
As a result, compounds such as #467929, 140553, and 180582 may have utility in curbing the activity of residual RNases that may carry over from RNA isolation methods during DNase treatments of the RNA.

In experiment [2] the target is nuclease (Homo sapiens, UniProt P03950). As to the kind of experiment: Ki of Lead 1 and Lead 2 analogs (Tables 1 and 2). The experiment is classed as biochemical. Conditions: Table 1, Lead 1 Analog List.
Chain of nuclease (P03950 25-147): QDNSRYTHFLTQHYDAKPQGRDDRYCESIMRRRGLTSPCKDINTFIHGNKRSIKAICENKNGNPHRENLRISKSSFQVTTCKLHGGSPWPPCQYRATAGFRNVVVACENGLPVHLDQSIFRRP
The target in experiment [3] is T1, bovine RNase A (Bos taurus, UniProt P61823).
T1 sequence (P61823 27-150): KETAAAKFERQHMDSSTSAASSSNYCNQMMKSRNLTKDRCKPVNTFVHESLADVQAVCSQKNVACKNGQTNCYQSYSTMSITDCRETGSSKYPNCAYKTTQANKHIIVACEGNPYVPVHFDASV
As to the kind of experiment: Intactness of total RNA (RNA LabChip), bovine RNase A. Conditions: 100 uM BpB, 8.3 pg/ul bovine RNase A. The experiment is classed as biochemical. As to the method:
(§1) A total of 100 pg/ul e. […].
(§2) Mouse pancreatic tissue (5 mg) was disrupted in 50 ul of 24 mM Hepes, pH 7.2, 50 mM NaCl, 1 mM MgCl2. The diluted lysate (1:20,000) was pre-incubated with 50 uM Benzopurpurin B (BpB) for 30 sec and then added to 100 ng/ul mouse liver total RNA (Ambion) and incubated at 23 C for an additional 4 min. Samples were quenched in a guanidinium lysis buffer, and the RNA purified via MEGAclear™ MAG-96 and eluted with 20 ul nuclease-free water. […] These experiments were conducted in the same fashion except that 100 uM BpB was employed. The sample (1 ul) was analyzed by 2100 BioAnalyzer software (Agilent) after separation on an RNA LabChip.
(§3) Pancreatic tissue (5 mg) was dounced in 50 ul of 24 mM Hepes, pH 7.2, 50 mM NaCl, 1 mM MgCl2. The lysate was diluted (1:20,000) and then pre-incubated with 200 uM of 467929. […] All samples were pre-incubated for 30 sec before being added to 100 ng/ul mouse liver total RNA (Ambion) and incubated at 23C for an additional 4 min. The RNA was then immediately purified via MEGAclear™ MAG-96 and eluted with 20 ul nuclease-free water. The recovered RNA (1 ul) was analyzed by 2100 BioAnalyzer software after separation on an RNA LabChip.

The test system of experiment [4] is diluted pancreas lysate. As to the kind of experiment: Intactness of total RNA (RNA LabChip), diluted pancreas lysate. Format: biochemical, mouse. Conditions: pancreas lysate 1:20,000, 23 C 4 min. As to the method: as §1
Pancreatic lysate (0.1 mg/ml) was diluted 1:20,000 in 24 mM Hepes, pH 7.2, 50 mM NaCl, 1 mM MgCl2 and pre-incubated with either 1% SDS or 6.25 mM OVA for 30 s prior to the addition of 2 ug mouse liver total RNA. Reactions were incubated at 25 C for an additional 4 min, quenched, and analyzed on an RNA LabChip.
as §2
Mouse pancreatic tissue (5 mg) was dounced in 50 ul of 24 mM Hepes, pH 7.2, 50 mM NaCl, 1 mM MgCl2. A diluted lysate (1:20,000) was pre-incubated with 100 uM BpB or the analog Benzopurpurin 4B (Bp4B) for 30 sec and then added to 100 ng/ul mouse liver total RNA (Ambion) and incubated at 23 C for an additional 4 min. Samples were quenched in a guanidinium lysis buffer, and the RNA purified via MEGAclear™ MAG-96 and eluted with 20 ul nuclease-free water. The sample (1 ul) was analyzed by 2100 BioAnalyzer software (Agilent) after separation on an RNA LabChip.
as §3

The target in experiment [5] is T2, human pancreatic RNase (HPR) (Homo sapiens, UniProt P07998).
T2 sequence (P07998 29-156): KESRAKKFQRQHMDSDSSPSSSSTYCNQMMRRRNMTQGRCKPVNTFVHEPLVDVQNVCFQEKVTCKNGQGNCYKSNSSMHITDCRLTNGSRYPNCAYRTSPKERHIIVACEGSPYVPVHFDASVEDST
As to the kind of experiment: Intactness of total RNA (RNA LabChip), HPR. Particulars: 100 uM BpB, 1 ng/ul HPR. Format: biochemical.

For experiment [6], the target named is eosinophil-derived neurotoxin (EDN) (Homo sapiens, UniProt P10153). The experiment is described as follows: Intactness of total RNA (RNA LabChip), EDN. Format: biochemical. Particulars: 100 uM BpB, 1 ng/ul EDN.
Chain of eosinophil-derived neurotoxin (EDN) (P10153 28-161): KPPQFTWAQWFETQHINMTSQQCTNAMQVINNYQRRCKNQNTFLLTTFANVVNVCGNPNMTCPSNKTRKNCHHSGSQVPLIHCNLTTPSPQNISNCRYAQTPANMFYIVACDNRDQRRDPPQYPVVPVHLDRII
Experiment [7] deals with one-step RT-PCR with MMLV-RT and SuperTaq, target hGAPDH. The experiment is described as follows: One-step qRT-PCR tolerance, hGAPDH. Format: biochemical. The method, then: To evaluate the compatibility of Benzopurpurin B and 4B in RT-PCR applications, 100 nM, 1 uM, 10 uM, and 25 uM were tested in Ambion's MessageSensor RT-PCR Kit using the supplier's instructions and using primers/probe designed to amplify a 226 nt amplicon from the human GAPDH mRNA. Reaction conditions: 20-ul one-step RT-PCR with MMLV-RT (0.4 U/ul final) and SuperTaq (0.04 U/ul final). Cycling conditions: Stage 1. 42 C for 15 minutes, Stage 2. 95 C for 5 min, Stage 3. 95 C-15 sec and 60 C-60 sec, where Stage 3 is repeated 40 times. […] The compound was tolerated at 10 uM or lower with no significant loss of sensitivity (Table 16).
(In qPCR the cycle at which signal appears reflects the starting amount.)

Experiment [8] has as its target E. coli RNase I (Escherichia coli, UniProt P21338). The experiment is described as follows: Intactness of total RNA (RNA LabChip), E. coli RNase I. Format: biochemical. Particulars: 100 uM BpB, 7 ng/ul E. coli RNase I.
The target of experiment [9] is T1, bovine RNase A. As to the kind of experiment: Ki determination by Dixon analysis (RNaseAlert). Format: biochemical. Particulars: 74 pM RNase A, 40 nM RNaseAlert substrate, pH 7.0. An excerpt: To measure the inhibition constant of compound #467929 against bovine RNase A, Dixon analysis was used to determine the relationship between RNase activity and inhibitor concentration. The […] fluorescence assay (Ambion) was used to quantify RNase activity.

The target in experiment [10] is MMLV RT RNase H (Moloney murine leukemia virus, UniProt P03355). As to the kind of experiment: RT-based RNase H cleavage of RNA:DNA hybrid. The experiment is classed as biochemical. As to the method: As described above, Chembridge compound #467929 offered protection from several RNA-specific endonucleolytic activities. […] A 20-mer DNA oligonucleotide was asymmetrically annealed to a 1500 base synthetic RNA to create an RNA:DNA duplex substrate for RNase H. Reactions were initiated with 10 U of MMLV RT in 1× RT buffer (50 mM TrisCl pH 8.3, 75 mM KC, 3 mM MgCl2, 5 mM DTT) containing 500 ng/ul RNA:DNA hybrid. All reactions contained 5% DMSO either with or without the small molecule RNase inhibitor. Samples were incubated for 5 min at 37 C, and quenched with EDTA. Products were resolved on an RNA LabChip. Cleavage products were observed as two equally represented RNA species of 1000 and 500 bases. Product length and yield were determined using the 2100 BioAnalyzer software (Agilent). Table 18 details the level of inhibition of MMLV RT RNase H that is observed as a function of the concentration of compounds 467929 and 227726.

Chain of DNase I (P00639 23-282): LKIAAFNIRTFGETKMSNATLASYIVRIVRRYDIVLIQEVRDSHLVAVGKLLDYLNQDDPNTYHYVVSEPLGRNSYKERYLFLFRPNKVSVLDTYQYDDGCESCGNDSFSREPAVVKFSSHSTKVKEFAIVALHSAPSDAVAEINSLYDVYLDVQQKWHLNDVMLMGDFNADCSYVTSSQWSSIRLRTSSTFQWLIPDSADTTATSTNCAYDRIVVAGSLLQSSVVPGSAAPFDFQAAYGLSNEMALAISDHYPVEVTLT
Chain of E. coli RNase I (P21338 24-268): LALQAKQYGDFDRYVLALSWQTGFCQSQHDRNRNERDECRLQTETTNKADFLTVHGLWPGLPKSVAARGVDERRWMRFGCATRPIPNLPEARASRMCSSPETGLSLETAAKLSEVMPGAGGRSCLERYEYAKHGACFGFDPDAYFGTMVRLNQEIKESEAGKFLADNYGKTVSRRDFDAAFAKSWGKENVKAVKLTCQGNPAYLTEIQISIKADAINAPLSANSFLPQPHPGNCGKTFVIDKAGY

By pKi is commonly meant the Ki on a negative log10 scale, so that one unit is a factor of ten. Read a low pKi as a large Ki. On to `Cc1cc(-c2ccc(/N=N/c3c(N)ccc4cc(S(=O)(=O)O)ccc34)c(C)c2)ccc1/N=N/c1c(N)ccc2cc(S(=O)(=O)O)ccc12` [Benzopurpurin B, 3,3′-di-methylbiphenyl-4,4′-bis(2-amino-naphthylazo-6-sulfo-nate)], for which, in experiment [1], the “concentration tolerated with little or no effect on enzymatic DNA cleavage” value was “up to 10 uM”. The same compound gave a pKi in [2] of 5.30. Also, the “inhibition of RNase (RNA intactness)” value in experiment [3], in [5], in [6] and in [8] was “effective inhibitor” in each case. The “protection of total RNA from degradation” value in experiment [4] (50 uM BpB) and in experiment [4] (100 uM inhibitor) was “significant protection” throughout. Besides, the “Ct at 50 ng Input RNA” value in experiment [7] (RT w RIP, inhibitor 1 uM) was 17.66; in experiment [7] (RT w RIP, inhibitor 10 uM) it was 19.27; in experiment [7] (RT w RIP, inhibitor 25 uM), “undet”; in experiment [7] (RT w RIP, inhibitor 100 nm), 17.27; in experiment [7] (RT without RIP, inhibitor 1 uM), 17.35; in experiment [7] (RT without RIP, inhibitor 10 uM), 17.96. Further, the “Ct at 50 ng Input RNA” value is reported as “undet” in experiment [7] (RT without RIP, inhibitor 25 uM) and 17.39 in experiment [7] (RT without RIP, inhibitor 100 nm).

`O=C(Nc1ccc(Cc2ccc(NC(=O)c3cccc([N+](=O)[O-])c3)c(C(=O)O)c2)cc1C(=O)O)c1cccc([N+](=O)[O-])c1` [compound 467929, 3,3′-dicarboxy-4,4′-bis(3-ni-trophenylamido)di-phenylmethane] showed a pKi in experiment [9] of around 4.92. Moreover, the “% Cleavage” value in experiment [10] (inhibitor 8 uM, 36 without inhibitor) came out at 42%; in experiment [10] (inhibitor 40 uM) it was 8%.
